Measured values as given in the NIST ThermoML archive (doi:10.1016/j.jct.2013.10.017).
Numbers after ± are expanded uncertainties.

Key:
[1] = 101.33 kPa, Liquid, Vibrating tube method
[2] = refractive index (Na D-line) (dimensionless); details: 101.33 kPa, Liquid, Standard Abbe refractometry
[3] = activity coefficient (dimensionless); of the first substance listed, at infinite dilution; xn = mol fraction of the nth substance listed; details: 100 kPa, Liquid, Chromatography, x1 = 0

| activity coefficient ([3]; 308.15 K) | activity coefficient ([3]; 313.15 K) | activity coefficient ([3]; 323.15 K) | activity coefficient ([3]; 333.15 K) | Structure (SMILES) | other results |
| --- | --- | --- | --- | --- | --- |
| 71.3 ± 4.7 | 71.7 ± 3.2 | 68.6 ± 4.8 | 65.6 ± 6.1 | C=CCCCCC [1-heptene] + CCn1cc[n+](C)c1.COCCOCCOS(=O)(=O)[O-] | – |
| 9.61 ± 0.48 | 9.76 ± 0.56 | 10.1 ± 0.83 | 10.3 ± 1 | C#CCCCCC [1-heptyne] + CCn1cc[n+](C)c1.COCCOCCOS(=O)(=O)[O-] | – |
| 6.05 ± 0.32 | 6.22 ± 0.38 | 6.49 ± 0.56 | 6.73 ± 0.65 | C#CCCCC [1-hexyne] + CCn1cc[n+](C)c1.COCCOCCOS(=O)(=O)[O-] | – |
| 16.4 ± 0.7 | 16.7 ± 0.9 | 17.1 ± 1.3 | 17.4 ± 1.7 | C#CCCCCCC [1-octyne] + CCn1cc[n+](C)c1.COCCOCCOS(=O)(=O)[O-] | – |
| 26.1 ± 2.4 | 26.5 ± 1.5 | 26.3 ± 2 | 25.4 ± 2 | C=CCCC [1-pentene] + CCn1cc[n+](C)c1.COCCOCCOS(=O)(=O)[O-] | – |
| 3.62 ± 0.19 | 3.74 ± 0.25 | 3.98 ± 0.4 | 4.13 ± 0.4 | C#CCCC [1-pentyne] + CCn1cc[n+](C)c1.COCCOCCOS(=O)(=O)[O-] | – |
| 2.31 ± 0.12 | 2.33 ± 0.15 | 2.41 ± 0.18 | 2.48 ± 0.22 | c1ccccc1 [benzene] + CCn1cc[n+](C)c1.COCCOCCOS(=O)(=O)[O-] | – |
| 0.719 ± 0.032 | 0.705 ± 0.033 | 0.664 ± 0.03 | 0.666 ± 0.029 | CCO [ethanol] + CCn1cc[n+](C)c1.COCCOCCOS(=O)(=O)[O-] | – |
| 8.04 ± 0.38 | 8.04 ± 0.47 | 8.06 ± 0.61 | 8.17 ± 0.74 | CCc1ccccc1 [ethylbenzene] + CCn1cc[n+](C)c1.COCCOCCOS(=O)(=O)[O-] | – |
| 158 ± 7.1 | 158 ± 8 | 147 ± 6.8 | 139 ± 6.2 | CCCCCCC [heptane] + CCn1cc[n+](C)c1.COCCOCCOS(=O)(=O)[O-] | – |
| 45.6 ± 2.4 | 44.7 ± 2.2 | 43.4 ± 4.1 | 40.3 ± 3.2 | C=CCCCC [hex-1-ene] + CCn1cc[n+](C)c1.COCCOCCOS(=O)(=O)[O-] | – |
| 103 ± 4.9 | 102 ± 4.9 | 94 ± 5.2 | 85.7 ± 7.4 | CCCCCC [hexane] + CCn1cc[n+](C)c1.COCCOCCOS(=O)(=O)[O-] | – |
| 114 ± 5.6 | 113 ± 6.1 | 107 ± 5.6 | 101 ± 8 | C=CCCCCCC [oct-1-ene] + CCn1cc[n+](C)c1.COCCOCCOS(=O)(=O)[O-] | – |
| 215 ± 9.9 | 216 ± 9.9 | 212 ± 10 | 202 ± 10 | CCCCCCCC [octane] + CCn1cc[n+](C)c1.COCCOCCOS(=O)(=O)[O-] | – |
| 65.8 ± 4.5 | 65.6 ± 4 | 60.8 ± 2.9 | 59 ± 5.1 | CCCCC [pentane] + CCn1cc[n+](C)c1.COCCOCCOS(=O)(=O)[O-] | – |
| 1.01 ± 0.05 | 0.989 ± 0.056 | 0.942 ± 0.055 | 0.913 ± 0.063 | CCCO [propan-1-ol] + CCn1cc[n+](C)c1.COCCOCCOS(=O)(=O)[O-] | – |

Further lines, the molecule ahead of its results:

| Structure (SMILES) | activity coefficient ([3]; 308.15 K) | activity coefficient ([3]; 313.15 K) | activity coefficient ([3]; 323.15 K) | activity coefficient ([3]; 333.15 K) | other results |
| --- | --- | --- | --- | --- | --- |
| CCn1cc[n+](C)c1.COCCOCCOS(=O)(=O)[O-] [1-ethyl-3-methylimidazolium 2-(2-methoxyethoxy) ethylsulfate] | – | – | – | – | mass density ([1]; 308.2 K): 1230.4 ± 1.3 kg/m3; mass density ([1]; 313.2 K): 1226.21 ± 1.3 kg/m3; mass density ([1]; 323.2 K): 1219.6 ± 1.3 kg/m3; mass density ([1]; 333.2 K): 1213.66 ± 1.3 kg/m3; refractive index ([2]; 308.2 K): 1.47929 ± 0.00051; refractive index ([2]; 313.2 K): 1.47565 ± 0.00051; refractive index ([2]; 323.2 K): 1.47281 ± 0.00051; refractive index ([2]; 333.2 K): 1.46995 ± 0.00051 |
| C=CCCCCCCC [1-nonene] + CCn1cc[n+](C)c1.COCCOCCOS(=O)(=O)[O-] | 168 ± 7.6 | 168 ± 9.1 | 160 ± 7.1 | 149 ± 8.9 | – |
| C#CCCCCCCC [1-nonyne] + CCn1cc[n+](C)c1.COCCOCCOS(=O)(=O)[O-] | 23.9 ± 1.1 | 24.7 ± 1.1 | 25.7 ± 1.9 | 26.4 ± 2.4 | – |
| CC(C)=O [acetone] + CCn1cc[n+](C)c1.COCCOCCOS(=O)(=O)[O-] | 1.42 ± 0.07 | 1.46 ± 0.07 | 1.47 ± 0.11 | 1.51 ± 0.13 | – |
| CCC(C)=O [butanone] + CCn1cc[n+](C)c1.COCCOCCOS(=O)(=O)[O-] | 2.33 ± 0.12 | 2.34 ± 0.13 | 2.37 ± 0.18 | 2.42 ± 0.21 | – |
| C1CCCCCC1 [cycloheptane] + CCn1cc[n+](C)c1.COCCOCCOS(=O)(=O)[O-] | 60.3 ± 2.9 | 58.7 ± 3.2 | 54.1 ± 3.8 | 50.6 ± 5 | – |
| C1CCCCC1 [cyclohexane] + CCn1cc[n+](C)c1.COCCOCCOS(=O)(=O)[O-] | 45.4 ± 2.1 | 45 ± 2.9 | 41.5 ± 3.2 | 38.8 ± 4.1 | – |
| C1CCCCCCC1 [cyclooctane] + CCn1cc[n+](C)c1.COCCOCCOS(=O)(=O)[O-] | 82.6 ± 3.7 | 79.8 ± 3.6 | 73.4 ± 4.3 | 68.2 ± 6.2 | – |
| C1CCCC1 [cyclopentane] + CCn1cc[n+](C)c1.COCCOCCOS(=O)(=O)[O-] | 27.1 ± 1.3 | 26 ± 1.5 | 24.1 ± 2 | 22.8 ± 1.4 | – |
| CO [methanol] + CCn1cc[n+](C)c1.COCCOCCOS(=O)(=O)[O-] | 0.39 ± 0.027 | 0.392 ± 0.027 | 0.374 ± 0.031 | 0.369 ± 0.027 | – |
| CC1CCCCC1 [methylcyclohexane] + CCn1cc[n+](C)c1.COCCOCCOS(=O)(=O)[O-] | 71.9 ± 3.2 | 70.6 ± 3.3 | 65.8 ± 4.1 | 62.3 ± 5.7 | – |
| CCCCCCCCC [nonane] + CCn1cc[n+](C)c1.COCCOCCOS(=O)(=O)[O-] | 292 ± 16 | 303 ± 14 | 288 ± 20 | 281 ± 13 | – |
| Cc1ccccc1 [toluene] + CCn1cc[n+](C)c1.COCCOCCOS(=O)(=O)[O-] | 4.43 ± 0.21 | 4.45 ± 0.27 | 4.51 ± 0.33 | 4.62 ± 0.45 | – |
